Data as given in EPA's ToxRefDB 2.

How the values were obtained:
[1] = system: rat; details: Combined chronic toxicity/carcinogenicity, wistar, Oral, Feed, dose end: 26 month
[2] = system: dog; details: Chronic toxicity; beagle; Oral; Feed; dose end: 12 month; group: cholinesterase; cholinesterase / cholinesterase / cholinesterase / erythrocyte cholinesterase (che) + cholinesterase / cholinesterase / cholinesterase / …
[3] = system: dog; details: Subchronic oral toxicity in nonrodent, beagle, Capsule, dose end: 6 month
[4] = system: rat; details: Subchronic oral toxicity in rodents, Diet, dose end: 90 day
[5] = system: rat; details: Developmental neurotoxicity study; long evans; Injection; Subcutaneous; dose end: 30 PND; group: cannot be grouped; cholinesterase / cholinesterase / cholinesterase / cholinesterase (che) + systemic / in life observation / body weight / offspring (pup) …
[6] = system: rat; details: Chronic toxicity, Oral, Feed, dose end: 26 month, group: systemic
[7] = system: rat; details: Combined chronic toxicity/carcinogenicity, sprague dawley, Oral, Feed, dose end: 24 month, group: systemic
[8] = system: rat; details: Carcinogenicity, fischer, Oral, Gavage/Intubation, dose end: 103 week, group: systemic
[9] = system: mouse; details: Carcinogenicity; b6c3f1; Oral; Gavage/Intubation; dose end: 104 week; group: systemic; systemic / in life observation / body weight / body weight + systemic / pathology microscopic / stomach / cyst + systemic / pathology …
[10] = system: rat; details: Subchronic oral toxicity in rodents, fischer, Gavage/Intubation, dose end: 13 week, group: systemic
[11] = system: mouse; details: Subchronic oral toxicity in rodents, b6c3f1, Gavage/Intubation, dose end: 13 week, group: systemic, systemic / pathology microscopic / stomach / cytoplasmic alteration + systemic / pathology microscopic / stomach / hyperkeratosis + systemic…
[12] = group: cholinesterase, cholinesterase / cholinesterase / cholinesterase / erythrocyte cholinesterase (che) + cholinesterase / cholinesterase / cholinesterase / …
[13] = group: systemic, systemic / in life observation / body weight / body weight + systemic / in life observation / clinical signs / [other] + systemic / in life …
[14] = group: cholinesterase, cholinesterase / cholinesterase / cholinesterase / plasma cholinesterase (che)
[15] = group: systemic, systemic / clinical chemistry / [other] / [other]
[16] = group: systemic, systemic / in life observation / body weight / body weight gain + systemic / in life observation / mortality / mortality
[17] = systemic / pathology microscopic / eye / [other]
[18] = systemic / pathology microscopic / eye / [other] + systemic / pathology microscopic / eye / atrophy + systemic / pathology microscopic / eye…
[19] = systemic / pathology microscopic / nerve / [other] + systemic / pathology microscopic / nerve / proliferation
[20] = systemic / in life observation / clinical signs / defecation (diarrhea) + systemic / in life observation / clinical signs / urination
[21] = systemic / in life observation / clinical signs / defecation (diarrhea) + systemic / in life observation / clinical signs / urination + …
[22] = systemic / in life observation / body weight / body weight + systemic / in life observation / clinical signs / defecation (diarrhea) + …

CCOP(=S)(OCC)Oc1ccc([N+](=O)[O-])cc1 [Parathion]
LEL [1, 12]: 0.42 mg/kg/day
LOAEL [1, 12]: 0.42 mg/kg/day
NEL [1, 12]: 0.1 mg/kg/day
NOAEL [1, 12]: 0.1 mg/kg/day
LOAEL [1, 13]: > 1.75 mg/kg/day
NOAEL [1, 13]: ≥ 1.75 mg/kg/day
LEL ([1]; group: systemic, systemic / pathology microscopic / eye / [other]): 0.53 mg/kg/day
NEL ([1]; group: systemic, systemic / pathology microscopic / eye / [other] + systemic / clinical chemistry / aspartate aminotransferase (ast/sgot) / aspartate …): 0.14 mg/kg/day
LEL [2]: 0.01 mg/kg/day
LOAEL [2]: 0.01 mg/kg/day
NEL [2]: < 0.01 mg/kg/day
NOAEL [2]: < 0.01 mg/kg/day
LEL [3, 14]: 0.0024 mg/kg/day
LOAEL [3, 14]: 0.0079 mg/kg/day
NEL [3, 14]: < 0.0024 mg/kg/day
NOAEL ([3]; group: cholinesterase, cholinesterase / cholinesterase / cholinesterase / plasma cholinesterase (che) + cholinesterase / cholinesterase / cholinesterase / brain (…): 0.0024 mg/kg/day
LEL [3, 15]: 0.794 mg/kg/day
LOAEL [3, 15]: > 0.794 mg/kg/day
NEL [3, 15]: 0.0079 mg/kg/day
NOAEL [3, 15]: ≥ 0.794 mg/kg/day
LEL [4, 12]: 0.4 mg/kg/day
LOAEL [4, 12]: 4 mg/kg/day
NEL [4, 12]: 0.04 mg/kg/day
NOAEL [4, 12]: 0.4 mg/kg/day
LEL [4, 16]: 4 mg/kg/day
LOAEL [4, 16]: 4 mg/kg/day
NEL [4, 16]: 0.4 mg/kg/day
NOAEL [4, 16]: 0.4 mg/kg/day
LEL [5]: 1.3 mg/kg/day
LOAEL [5]: > 1.9 mg/kg/day
NEL [5]: < 1.3 mg/kg/day
NOAEL [5]: ≥ 1.9 mg/kg/day
NEL [6, 17]: 0.4 mg/kg/day
NOAEL [6, 17]: 0.4 mg/kg/day
LEL [6, 18]: 1.6 mg/kg/day
LOAEL [6, 18]: 1.6 mg/kg/day
NEL ([7]; systemic / in life observation / clinical signs / abnormal gait): 0.25 mg/kg/day
LOAEL [7, 19]: 2.5 mg/kg/day
NOAEL [7, 19]: 0.25 mg/kg/day
LEL ([7]; systemic / pathology microscopic / nerve / [other] + systemic / pathology microscopic / nerve / proliferation + systemic / in life …): 2.5 mg/kg/day

CC1(C)S[C@@H]2[C@H](NC(=O)COc3ccccc3)C(=O)N2[C@H]1C(=O)[O-].[K+] [Penicillin VK]
LEL [8, 20]: 500 mg/kg/day
NEL [8, 20]: < 500 mg/kg/day
LOAEL [8, 21]: > 1000 mg/kg/day
NOAEL [8, 21]: ≥ 1000 mg/kg/day
LEL [9]: 500 mg/kg/day
LOAEL [9]: > 1000 mg/kg/day
NEL [9]: < 500 mg/kg/day
NOAEL [9]: ≥ 1000 mg/kg/day
LOAEL [10, 22]: > 3000 mg/kg/day
NEL [10, 22]: 370 mg/kg/day
NOAEL [10, 22]: ≥ 3000 mg/kg/day
LEL ([10]; systemic / in life observation / clinical signs / defecation (diarrhea)): 750 mg/kg/day
LEL [11]: 100 mg/kg/day
LOAEL [11]: > 3000 mg/kg/day
NEL [11]: < 100 mg/kg/day
NOAEL [11]: ≥ 3000 mg/kg/day
